This is an account of results in publication PMC5467235, “Variation in auxin sensing guides AUX/IAA transcriptional repressor ubiquitylation and destruction” (Nature Communications, 2017).

Molecules are shown by their SMILES. Residue numbers refer to the chain shown, from its start.

For assay [1], the target named is T1, ASK1-TIR1-IAA6 co-receptor complex (TIR1-IAA6) (Arabidopsis thaliana, UniProt Q38824+Q570C0).
T1 construct: ASK1-TIR1 from insect cells (Sf9 or Hi5), purified; IAA6 N-terminally GST-tagged from E. coli, full length; with SKP1-like protein 1A
T1 sequence (Q570C0 1-594): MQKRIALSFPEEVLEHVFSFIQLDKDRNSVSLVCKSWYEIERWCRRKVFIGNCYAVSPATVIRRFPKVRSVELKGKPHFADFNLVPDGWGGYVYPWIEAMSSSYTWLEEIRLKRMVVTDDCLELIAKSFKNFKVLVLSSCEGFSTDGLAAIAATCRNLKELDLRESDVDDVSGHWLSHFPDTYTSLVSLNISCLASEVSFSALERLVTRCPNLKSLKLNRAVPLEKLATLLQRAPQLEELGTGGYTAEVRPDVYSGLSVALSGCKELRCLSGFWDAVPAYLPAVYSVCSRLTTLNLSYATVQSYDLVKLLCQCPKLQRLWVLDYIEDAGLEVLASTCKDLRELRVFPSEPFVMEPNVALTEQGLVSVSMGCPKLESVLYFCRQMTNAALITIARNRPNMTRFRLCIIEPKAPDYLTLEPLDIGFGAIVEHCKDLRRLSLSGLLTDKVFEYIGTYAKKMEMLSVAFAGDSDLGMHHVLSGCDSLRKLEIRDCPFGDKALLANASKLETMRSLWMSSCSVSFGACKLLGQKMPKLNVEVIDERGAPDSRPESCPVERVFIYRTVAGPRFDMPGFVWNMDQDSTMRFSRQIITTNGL
T1 sequence (Q38824 1-189): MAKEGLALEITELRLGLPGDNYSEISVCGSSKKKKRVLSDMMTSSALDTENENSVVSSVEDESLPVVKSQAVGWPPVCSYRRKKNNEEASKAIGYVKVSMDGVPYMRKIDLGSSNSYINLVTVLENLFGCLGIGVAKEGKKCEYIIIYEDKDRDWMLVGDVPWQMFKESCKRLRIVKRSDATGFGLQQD
T1 sequence (Q39255 1-160 partner): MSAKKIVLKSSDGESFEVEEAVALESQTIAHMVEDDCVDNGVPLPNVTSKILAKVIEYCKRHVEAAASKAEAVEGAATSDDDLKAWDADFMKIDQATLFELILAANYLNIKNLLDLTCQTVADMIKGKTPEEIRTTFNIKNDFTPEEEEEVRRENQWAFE
Nature of the assay: homologous competition radioligand binding. As to conditions: unlabelled IAA against 50 nM [3H]IAA.

For assay [2], the target named is T2, AFB2-IAA19 (yeast two-hybrid) (Arabidopsis thaliana, UniProt O24409+Q9LW29).
T2 construct: LexA DBD-AFB2 and AD-IAA19 fusions in yeast diploids
T2 sequence (Q9LW29 1-575): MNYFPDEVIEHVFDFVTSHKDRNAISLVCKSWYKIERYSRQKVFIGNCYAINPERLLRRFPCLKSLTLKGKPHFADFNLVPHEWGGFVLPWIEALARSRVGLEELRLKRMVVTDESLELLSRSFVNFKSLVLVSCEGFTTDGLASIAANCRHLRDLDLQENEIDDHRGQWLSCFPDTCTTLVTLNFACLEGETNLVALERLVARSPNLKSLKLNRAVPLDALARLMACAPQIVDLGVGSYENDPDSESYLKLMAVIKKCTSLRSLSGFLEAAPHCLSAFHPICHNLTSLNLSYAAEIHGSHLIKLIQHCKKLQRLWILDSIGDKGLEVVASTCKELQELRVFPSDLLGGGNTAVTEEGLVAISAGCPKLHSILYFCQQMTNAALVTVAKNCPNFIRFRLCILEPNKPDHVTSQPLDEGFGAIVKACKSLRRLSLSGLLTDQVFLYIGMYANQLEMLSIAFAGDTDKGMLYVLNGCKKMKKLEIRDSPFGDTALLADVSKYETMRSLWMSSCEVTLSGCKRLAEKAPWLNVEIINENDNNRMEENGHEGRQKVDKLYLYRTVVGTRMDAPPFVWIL
T2 sequence (O24409 1-197): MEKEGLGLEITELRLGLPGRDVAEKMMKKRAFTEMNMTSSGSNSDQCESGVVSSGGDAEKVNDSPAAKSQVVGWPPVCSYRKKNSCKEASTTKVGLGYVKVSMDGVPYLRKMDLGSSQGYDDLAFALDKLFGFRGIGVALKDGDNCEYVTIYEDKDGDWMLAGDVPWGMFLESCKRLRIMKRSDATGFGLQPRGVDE
Kind of assay: yeast two-hybrid, beta-galactosidase reporter. The format is cell-based. As to conditions: auxin-dependent association in yeast; low micromolar IAA.

Assay [3] concerns the target T3, ASK1-TIR1-IAA19 co-receptor complex (TIR1-IAA19) (Arabidopsis thaliana, UniProt O24409+Q570C0, O24409:P76S).
T3 construct: ASK1-TIR1 from insect cells (Sf9 or Hi5), purified; IAA19 N-terminally GST-tagged from E. coli, full length; with SKP1-like protein 1A
T3 sequence (Q570C0 1-594): T1 sequence (Q570C0 1-594)
T3 sequence (O24409 1-197 P76S): T2 sequence (O24409 1-197) with P76S
T3 sequence (Q39255 1-160 partner): T1 sequence (Q39255 1-160 partner)
Nature of the assay: one-point [3H]IAA saturation binding. As to conditions: labelled compound; 200 nM [3H]IAA; msg2-1 degron mutant.

The target in assay [4] is T4, ASK1-TIR1-IAA6 co-receptor complex (TIR1-IAA6) (Arabidopsis thaliana, UniProt Q38824+Q570C0, Q38824:C78R).
T4 construct: ASK1-TIR1 from insect cells (Sf9 or Hi5), purified; IAA6 N-terminally GST-tagged from E. coli, full length; with SKP1-like protein 1A
T4 sequence (Q570C0 1-594): T1 sequence (Q570C0 1-594)
T4 sequence (Q38824 1-189 C78R): T1 sequence (Q38824 1-189) with C78R
T4 sequence (Q39255 1-160 partner): T1 sequence (Q39255 1-160 partner)
Kind of assay: one-point [3H]IAA saturation binding. To be noted: labelled compound; 200 nM [3H]IAA; shy1-1 degron mutant.

For assay [5], the target named is T5, AFB1-IAA6 (yeast two-hybrid) (Arabidopsis thaliana, UniProt Q38824+Q9ZR12).
T5 construct: gene GRH1; LexA DBD-AFB1 and AD-IAA6 fusions in yeast diploids
T5 sequence (Q9ZR12 1-585): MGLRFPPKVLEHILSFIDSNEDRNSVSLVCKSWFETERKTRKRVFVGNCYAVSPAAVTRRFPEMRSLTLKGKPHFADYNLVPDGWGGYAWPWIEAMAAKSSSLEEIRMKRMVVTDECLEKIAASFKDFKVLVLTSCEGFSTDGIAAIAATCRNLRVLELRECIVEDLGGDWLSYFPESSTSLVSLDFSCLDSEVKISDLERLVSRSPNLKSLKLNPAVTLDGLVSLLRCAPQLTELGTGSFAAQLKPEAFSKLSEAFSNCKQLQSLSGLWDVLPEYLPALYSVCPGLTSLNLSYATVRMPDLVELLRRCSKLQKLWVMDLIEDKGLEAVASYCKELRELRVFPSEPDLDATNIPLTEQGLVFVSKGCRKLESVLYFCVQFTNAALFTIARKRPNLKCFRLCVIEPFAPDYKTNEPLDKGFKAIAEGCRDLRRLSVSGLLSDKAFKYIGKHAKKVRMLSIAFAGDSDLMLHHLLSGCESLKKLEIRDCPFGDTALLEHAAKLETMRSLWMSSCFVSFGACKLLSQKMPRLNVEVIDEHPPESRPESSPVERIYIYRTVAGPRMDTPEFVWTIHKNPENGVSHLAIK
T5 sequence (Q38824 1-189): T1 sequence (Q38824 1-189)
Nature of the assay: yeast two-hybrid, beta-galactosidase reporter. The assay is classed as cell-based. As to conditions: auxin-dependent association in yeast; low micromolar IAA.

In assay [6] the target is T6, AFB2-IAA6 (yeast two-hybrid) (Arabidopsis thaliana, UniProt Q38824+Q9LW29).
T6 construct: LexA DBD-AFB2 and AD-IAA6 fusions in yeast diploids
T6 sequence (Q9LW29 1-575): T2 sequence (Q9LW29 1-575)
T6 sequence (Q38824 1-189): T1 sequence (Q38824 1-189)
Nature of the assay: yeast two-hybrid, beta-galactosidase reporter. The format is cell-based. As to conditions: auxin-dependent association in yeast; low micromolar IAA.

Assay [7] has as its target T7, ASK1-TIR1-IAA19 co-receptor complex (TIR1-IAA19) (Arabidopsis thaliana, UniProt O24409+Q570C0).
T7 construct: ASK1-TIR1 from insect cells (Sf9 or Hi5), purified; IAA19 N-terminally GST-tagged from E. coli, full length; with SKP1-like protein 1A
T7 sequence (Q570C0 1-594): T1 sequence (Q570C0 1-594)
T7 sequence (O24409 1-197): T2 sequence (O24409 1-197)
T7 sequence (Q39255 1-160 partner): T1 sequence (Q39255 1-160 partner)
Kind of assay: homologous competition radioligand binding. As to conditions: unlabelled IAA against 25 nM [3H]IAA.

In assay [8] the target is T1, ASK1-TIR1-IAA6 co-receptor complex (TIR1-IAA6). Nature of the assay: homologous competition radioligand binding.
For assay [9], the target named is T7, ASK1-TIR1-IAA19 co-receptor complex (TIR1-IAA19). Kind of assay: [3H]IAA saturation radioligand binding.
The target of assay [10] is T8, AFB1-IAA19 (yeast two-hybrid) (Arabidopsis thaliana, UniProt O24409+Q9ZR12).
T8 construct: gene GRH1; LexA DBD-AFB1 and AD-IAA19 fusions in yeast diploids
T8 sequence (Q9ZR12 1-585): T5 sequence (Q9ZR12 1-585)
T8 sequence (O24409 1-197): T2 sequence (O24409 1-197)
Kind of assay: yeast two-hybrid, beta-galactosidase reporter. To be noted: auxin-dependent association in yeast; low micromolar IAA. The format is cell-based.

Assay [11] has as its target T1, ASK1-TIR1-IAA6 co-receptor complex (TIR1-IAA6). Kind of assay: [3H]IAA saturation radioligand binding.
For assay [12], the target named is T7, ASK1-TIR1-IAA19 co-receptor complex (TIR1-IAA19). Nature of the assay: homologous competition radioligand binding.

In the case of `O=C(O)Cc1c[nH]c2ccccc12` [IAA], the IC50 entry in assay [1] was “determined IC50 and Ki values for each of the complexes”; in [7], “determined IC50 and Ki values for each of the complexes”. In addition, the “yeast two-hybrid, beta-galactosidase reporter” value in [2] was “IAA6 and IAA19 interacted in an auxin-dependent manner with TIR1, AFB1 and AFB2”; in [5], “IAA6 and IAA19 interacted in an auxin-dependent manner with TIR1, AFB1 and AFB2”; in assay [6], “IAA6 and IAA19 interacted in an auxin-dependent manner with TIR1, AFB1 and AFB2”; in assay [10] it was “IAA6 and IAA19 interacted in an auxin-dependent manner with TIR1, AFB1 and AFB2”. The “specific binding at 200 nM” value in assay [3] was “IAA6^C78R/shy1-1 and IAA19^P76S/msg2-1 mutants that mimic stabilized version of the proteins affect significantly”; in assay [4], “IAA6^C78R/shy1-1 and IAA19^P76S/msg2-1 mutants that mimic stabilized version of the proteins affect significantly”. Moreover, the inhibition constant Ki in assay [8] was 99.3 ± 11.9 nM; in assay [12], 33.5 ± 3.7 nM. Besides, the dissociation constant Kd in assay [9] came to 15.6 ± 2 nM; in assay [11], 72 ± 10.5 nM.
